This passage reports IC50 and T/C results from ChEMBL document CHEMBL1130292, “Novel cyanoguanidines with potent oral antitumour activity” (Bioorg Med Chem Lett, 1997).

Experiment [1] has as its system NYH small cell lung cancer (Homo sapiens). Kind of experiment: Evaluated in vitro for antiproliferative activity against NYH cell lines derived from small cell lung cancer.
For experiment [2], the system named is NCI-H460. Kind of experiment: Evaluated in vitro for antiproliferative activity against […] cell lines derived from large cell carcinoma of the lung. It is filed as functional, cell-based. Particulars: Homo sapiens.
Experiment [3] relates to MCF7. Kind of experiment: Evaluated in vitro for antiproliferative activity against MCF-7 cell lines model of hormone dependent breast cancer. Type of experiment: functional, cell-based. Particulars: Homo sapiens.
Experiment [4] has as its system Mus musculus. Kind of experiment: Percent median treated tumor size to that of control tumor size in NYH treatment model in mice (in vivo) after peroral administration of compound (20 mg/kg, number of tumors 8). Type of experiment: functional.
The test system of experiment [5] is Mus musculus. The experiment can be described thus: Percent median treated tumor size to that of control tumor size in NYH treatment model in mice (in vivo) after peroral administration of compound (20 mg/kg, number of tumors 11). Type of experiment: functional.
Experiment [6] has as its system Mus musculus. Kind of experiment: Percent median treated tumor size to that of control tumor size in NYH treatment model in mice (in vivo) after peroral administration of compound (20 mg/kg, number of tumors 9). It is filed as functional.
Experiment [7] is described as follows: In vitro antiproliferative activity against Fibroblasts. It is filed as functional.
Experiment [8] concerns Mus musculus. The experiment can be described thus: Percent median treated tumor size to that of control tumor size in NYH treatment model in mice (in vivo) after peroral administration of compound (25 mg/kg, number of tumors 9). It is filed as functional.
Experiment [9] concerns YOSHIDA. Kind of experiment: In vitro antiproliferative activity against Yoshida cell lines. Particulars: Rattus norvegicus. It is filed as functional, cell-based.
The test system of experiment [10] is Mus musculus. The experiment can be described thus: Percent median treated tumor size to that of control tumor size in NYH treatment model in mice (in vivo) after peroral administration of compound (50 mg/kg, number of tumors 13). It is filed as functional.
The subject of experiment [11] is B16. Kind of experiment: In vitro antiproliferative activity against B16 cell lines. Particulars: Mus musculus. Type of experiment: functional, cell-based.
Experiment [12] relates to Mus musculus. The experiment can be described thus: Percent median treated tumor size to that of control tumor size in NYH treatment model in mice (in vivo) after peroral administration of compound (20 mg/kg, number of tumors 20). Type of experiment: functional.
Experiment [13] relates to WALKER. The experiment can be described thus: In vitro antiproliferative activity against Walker cell line. Type of experiment: functional, cell-based. Particulars: Rattus norvegicus.
Experiment [14] has as its system Lewis lung carcinoma cell line. Kind of experiment: In vitro antiproliferative activity against Lewis cell lines. It is filed as functional, cell-based. Particulars: Mus musculus.
In experiment [15] the test system is Mus musculus. The experiment can be described thus: Percent median treated tumor size to that of control tumor size in NYH treatment model in mice (in vivo) after intraperitoneal administration of compound (0.5 mg/kg, number of tumors 8). It is filed as functional.
For experiment [16], the system named is Mus musculus. Kind of experiment: Percent median treated tumor size to that of control tumor size in NYH treatment model in mice (in vivo) after subcutaneous administration of compound (10 mg/kg, number of tumors 7). Type of experiment: functional.

pIC50: −log10 of the molar value.

As to `N#CN/C(=N\CCCCCCOc1ccccc1Cl)Nc1ccncc1`, the negative-log IC50 (pIC50) in experiment [1] is 9.22; in experiment [2] it was 8.24; in experiment [3], 8.72.
As to `N#CN/C(=N\CCCCCCCOc1ccccc1)Nc1cccnc1`, the pIC50 was 7.66 in experiment [1], 6.44 in [2] and 7.38 in experiment [3].
For `COc1ccccc1OCCCCCC/N=C(\NC#N)Nc1ccncc1`, in that order: 9.30, 7.68 and 8.96.
Regarding `COc1ccc(OCCCCCC/N=C(\NC#N)Nc2ccncc2)cc1`, the negative logarithm of the IC50 (pIC50) is 7.92 in experiment [1], 7.43 in [2] and 7.43 in [3].
In the case of `N#CN/C(=N\CCCCCCCCOc1ccc(Cl)cc1)Nc1ccncc1`, the figures for the pIC50 in experiment [1], in experiment [2] and in [3] were 7.82, 6.32 and 7.27, respectively.
Take `N#CN/C(=N\CCCCCCOc1ccc([N+](=O)[O-])cc1)Nc1ccncc1`: the pIC50 in [1] was 7.28; in [2], 6.23; in experiment [3], 6.92.
Consider `N#CN/C(=N\CCCCCCOc1ccccc1)Nc1ccncc1`, for which the pIC50 in experiment [1] was 8.31; in [2], 7.28; in [3], 7.52.
Regarding `COc1cccc(OCCCCCC/N=C(\NC#N)Nc2ccncc2)c1`, the pIC50 in experiment [1] was 8.72; in [2], 7.42; in [3] it was 8.42. The molecule further showed a T/C in [4] of 42%.
As to `N#CN/C(=N\CCCCCCOc1ccccc1[N+](=O)[O-])Nc1ccncc1`, the figures for the pIC50 in experiment [1], in experiment [2] and in [3] were 9.22, 7.39 and 8.20, respectively.
For `N#CN/C(=N\CCCCCCCOc1ccc(Cl)cc1)Nc1ccncc1`, in that order: 8.21, 7.16 and 7.25.
Turning to `N#CN/C(=N\CCCCCCCOc1ccccc1)Nc1ccncc1`, the results for the pIC50 in experiment [1], in experiment [2] and in experiment [3] were 9.22, 7.57 and 7.85, respectively. Besides, the T/C in experiment [5] worked out at 35%.
`N#CN/C(=N\CCCCCCOc1cccc(Cl)c1)Nc1ccncc1`: the negative-log IC50 (pIC50) in experiment [1] was 8.21; in experiment [2], 7.23; in experiment [3], 8.06.
For `N#CN/C(=N\CCCCCCOc1ccccc1)Nc1cccnc1`, in that order: 7.28, 6.28 and 6.64.
For the molecule `N#CN/C(=N\CCCCCCOc1cccc([N+](=O)[O-])c1)Nc1ccncc1`, the negative logarithm of the IC50 (pIC50) in experiment [1] is 8.24; in experiment [2], 7.13; in [3] it was 7.51.
Turning to `N#CN/C(=N\CCCCCOc1ccc(Cl)cc1)Nc1ccncc1`, the negative-log IC50 (pIC50) was 8.20 in experiment [1], 6.23 in experiment [2] and 7.28 in experiment [3].
Consider `N#CN/C(=N\CCCCCCOc1cc(Cl)c(Cl)cc1Cl)Nc1ccncc1`, for which the results for the negative logarithm of the IC50 (pIC50) in experiment [1], in [2] and in experiment [3] were 8.68, 7.89 and 8.36, respectively. In addition, the T/C in experiment [6] is 0%.
In the case of `N#CN=C(NCCCCCCOc1ccc(Cl)cc1)Nc1ccncc1` [CHS-828], the pIC50 in experiment [7] is 7.40; in experiment [1], 8.57; in experiment [2], 7.30; in [9], 6.85; in experiment [3] it was 7.51; in [11], 6.55. For the same molecule, the pIC50 was 6.30 in experiment [13] and 6.25 in experiment [14]. The T/C in [8], in [10] and in experiment [12] was 0% throughout.
Consider `COc1cccc2c1C(=O)c1c(O)c3c(c(O)c1C2=O)C[C@@](O)(C(C)=O)C[C@@H]3O[C@H]1C[C@H](N)[C@H](O)[C@H](C)O1` [DAUNORUBICIN], for which the negative-log IC50 (pIC50) was 8.41 in experiment [1]; 8.46 in experiment [2]; 8.13 in experiment [9]; 7.41 in [3]; 8.04 in experiment [11]; 7.33 in [13]. The molecule further gave a pIC50 in experiment [14] of 7.21. Besides, the T/C in experiment [15] came out at 105%.
Turning to `CC(=O)O[C@H]1C(=O)[C@@]2(C)[C@H]([C@H](OC(=O)c3ccccc3)[C@]3(O)C[C@H](OC(=O)[C@H](O)[C@@H](NC(=O)c4ccccc4)c4ccccc4)C(C)=C1C3(C)C)[C@]1(OC(C)=O)CO[C@@H]1C[C@@H]2O` [PACLITAXEL], the pIC50 is 9.05 in [7]; 8.37 in experiment [1]; 8.10 in experiment [9]; 8.10 in experiment [11]; 6.82 in experiment [13]; 7.21 in [14]. In experiment [16], the T/C was 48%.
